Article PMC12316734, “Lipase Activation by Poly(Methyl Methacrylate) in Dispersed Solution: Mechanistic Insights by Fluorescence Spectroscopy” (Applied Biochemistry and Biotechnology, 2025)

Molecular target: T1, Bacillus subtilis lipase A (BSLA WT) (Bacillus subtilis, UniProt P37957)
T1 construct: gene estA
Assay: fluorogenic hydrolysis assay
Assay type: biochemical
Conditions: 500 nM enzyme, 20 °C; W42C purified by cation exchange

## CCCC(=O)Oc1ccc2c(C)cc(=O)oc2c1 [4-methylumbelliferyl butyrate]
  fluorogenic hydrolysis assay: The kinetic effect of PMMA on BSLA WT and W42C was found to be identical
